# Measured values taken from EP0729465B1, “PYRONE DERIVATIVES AS PROTEASE INHIBITORS AND ANTIVIRAL AGENTS” (PARKE, DAVIS & COMPANY, priority 1993, dated 1995).
# Where two headings read alike, the source gives them in different places.
# Experiments:
# [1] = tested on: Enterococcus foecalis MGH2; experiment: Antibacterial activity, microtitration dilution method (MIC); assay type: cell-based
# Text: (§1) The compounds of the invention display antibacterial activity when tested by the microtitration dilution method as described in Heifetz, et al., Antimicr. Agents. & Chemoth. 6:124 (1974) which is incorporated herein by reference.
# (§2) By use of the above referenced method, the following minimum inhibitory concentration values (MICs in µg/mL) were obtained for representative compounds of the invention vs. clinically relevant gram positive pathogens which have become highly resistant to conventional therapy in recent years.
# [2] = tested on: Staphylococcus aureus H228; experiment: as above; assay type: cell-based
# Text: as §1, §2
# [3] = tested on: Staphylococcus aureus UC-76; experiment: as above; assay type: cell-based
# Text: as §1, §2
# [4] = tested on: Streptococcus pneumonia 5V-1; experiment: as above; assay type: cell-based
# Text: as §1, §2
# [5] = tested on: Streptococcus pyogenes C203; experiment: as above; assay type: cell-based
# Text: as §1, §2
# [6] = molecular target: T1, HIV-I Protease (Human immunodeficiency virus type 1 group M subtype B, UniProt P04585); experiment: HIV protease inhibition (hydrolysis of undecapeptide substrate, HPLC readout); assay type: biochemical; conditions: read-out: 50% Inhibition Concentration (Averaged)
# T1 construct: HIV-I Protease: The enzyme is obtained from Bachem Bioscience Inc; purchased Bachem Bioscience Inc
# Description: • DTT Buffer: 1.0 mM dithiothreitol (DTT) was prepared fresh daily in 0.1% polyethylene glycol (mw 8000) 80 mM NaOAc, 160 mM NaCl, 1.0 mM EDTA, and brought to pH 4.7 with HCl. • HIV-I Protease: The enzyme is obtained from Bachem Bioscience Inc. The undiluted enzyme is thawed from -80 °C and diluted 50-fold with DTT buffer. The solution is always kept at 0 °C on ice water and used in the experiment within 20 minutes after thawing. • Enzyme Substrate: Substrate III from Bachem Bioscience Inc. is the undecapeptide H-His-Lys-Ala-Arg-Val-Leu-p-Nitrophenylalanine-Glu-Ala-Norleucine-ser-NH2 (> 97 % purity). A 200. µM stock solution in DTT buffer is prepared and stored on ice. Substrate solution is prepared fresh daily. • Test Compound: 10 mM inhibitor (I) in dimethyl sulfoxide (DMSO) is diluted to 200 µM with DTT buffer. From the 200 µM stock solution is made a 10 µM stock solution with 2% DMSO in DTT buffer. The two inhibitor solutions are used to make final [I] = 100, 50, 20, 10, 5, 2, 1, 0.5 and 0 µM with 2% DMSO in DTT buffer in each reaction well (total inhibitor volume of 50 µl).
# To each reaction well is added 20 µl of substrate (final concentration of 40 µM), 50 µl of inhibitor (at a concentration such that final dilution will produce the test concentration) and 20 µl of DTT buffer. The reaction plate (96 wells) is incubated at 37 °C for at least 5 minutes.
# 10 µl of the diluted protease is added to the reaction well while the reaction plate is shaking. Once shaken for 10 seconds, the plate is returned to the heating block at 37 °C. (Final reaction volume = 100 µl.)
# The reaction is incubated for 5 minutes at 37 °C. The reaction is stopped by placing the reaction plate on the shaker and adding 20 µl of 10% trifluoroacetic acid (TFA) and shaking for 10 seconds. The amount of proteolysis is then determined by separation of noncleaved substrate and two cleaved products with reverse-phase HPLC, while measuring absorbance at 220 nm to determine the relative peak areas of the three components. The relative peak areas are used to calculate % conversion to product as a function of inhibitor concentration. The data is plotted as % Control (the ratio of % conversion in the presence and absence of inhibitor x 100) versus inhibitor concentration and fit with the equation Y= 100/1+(X/IC50)^A, where IC50 is the inhibitor concentration at 50% inhibition and A is the slope of the inhibition curve.
# [7] = tested on: HIV-1iiib; experiment: Anti-HIV-1 activity, acute infection of H9 cells; assay type: cell-based; conditions: Human immunodeficiency virus 1; H9 cell line infected with HIV-1iiib; reverse transcriptase assay at 4 and 7 days post infection; read-out: Concentration for 50% Protection
# Description: Using the general methods of Pauwels et al., (J. Virol. Methods, 16, 171-185, 1987) and Mann et al. (AIDS Research and Human Retroviruses, 253-255, 1989) anti-viral assays of acute HIV-1 infection were performed in the H9 cell line. Cultures were batch infected in 1 ml of RPM1 1640 media/10% fetal calf serum containing 10^7 cells and 10^5 infectious doses of HIV-1iiib for an effective multiplicity of infection of 0.01. After 2 hours of viral absorption, cells were washed once and plated in 96-well microtiter plates at a density of 10^4 cells per well. Test compounds were added to produce the desired concentration of drug and 0.2% DMSO in a final volume of 200 µl. Uninfected parallel cultures were maintained for XTT cytotoxicity assay at 7 days post infection. Cultures were tested for viral replication by reverse transcriptase assay at 4 and 7 days post infection.
# [8] = 40 µM substrate, pH 4.7, 37 °C, 5 minutes
# [9] = read-out: minimum inhibitory concentration (MIC)
molecule,measurement,setting,value
3-[1-(Cyclohexylthio)-3-methylbutyl]-4-hydroxy-6-phenyl-2H-pyran-2-one [Example 128],minimum inhibitory concentration (MIC),[1],25 µg/mL
same,minimum inhibitory concentration (MIC),[2],12.5 µg/mL
same,minimum inhibitory concentration (MIC),[3],12.5 µg/mL
same,minimum inhibitory concentration (MIC),[4],25 µg/mL
same,minimum inhibitory concentration (MIC),[5],25 µg/mL
"O=c1oc(-c2ccc(OCc3cccnc3)cc2)cc(O)c1SCCc1ccccc1 [Example 64, 4-Hydroxy-3-[(2-phenylethyl)thio]-6-[4-(3-pyridinylmethoxy)phenyl]-2H-pyran-2-one]",IC50,[6]; [8],1500 nM
same,EC50,[7],3000 nM
"O=c1oc(-c2ccc3c(c2)OCCO3)cc(O)c1SCc1ccccc1 [Example 107, 6-(2,3-Dihydro-1,4-benzodioxin-6-yl)-4-hydroxy-3-[(phenylmethyl)thio]-2H-pyran-2-one]",IC50,[6],480 nM
same,EC50,[7],15000 nM
"CC(C)(C)CC(SC1CCCCC1)c1c(O)cc(-c2ccccc2)oc1=O (racemic) [Example 92, 3-[1-(Cyclohexylthio)-3,3-dimethylbutyl]-4-hydroxy-6-phenyl-2H-pyran-2-one]",MIC,[1]; [9],100 µg/mL
same,MIC,[2]; [9],25 µg/mL
same,MIC,"[3]; UC76, read-out: minimum inhibitory concentration (MIC)",25 µg/mL
same,MIC,"[4]; Streptococcus pneumoniae, 5V1, read-out: minimum inhibitory concentration (MIC)",50 µg/mL
same,MIC,[5]; [9],50 µg/mL
"CC(C)CC(Sc1ccccc1)c1c(O)cc(-c2ccccc2)oc1=O (racemic) [Example 73, 4-Hydroxy-3-[3-methyl-1-(phenylthio)butyl]-6-phenyl-2H-pyran-2-one]",IC50,[6]; [8],410 nM
same,EC50,[7],15000 nM
